Data as given in article PMC6301899, “Characterization, expression and application of a zearalenone degrading enzyme from Neurospora crassa” (AMB Express, 2018).

Molecular target: T1, ZENC (Neurospora crassa, UniProt Q1K8M1)
T1 construct: gene NCU05345; codon-optimised full gene (888 bp; 295 residues in abstract, 296 in results) fused to alpha-factor signal peptide in pPIC9K; secreted from Pichia pastoris GS115, HiTrap Q purified; about 29 kDa by SDS-PAGE; proposed catalytic triad Ser117, Asp141, His274
T1 sequence (Q1K8M1 entry or part of it): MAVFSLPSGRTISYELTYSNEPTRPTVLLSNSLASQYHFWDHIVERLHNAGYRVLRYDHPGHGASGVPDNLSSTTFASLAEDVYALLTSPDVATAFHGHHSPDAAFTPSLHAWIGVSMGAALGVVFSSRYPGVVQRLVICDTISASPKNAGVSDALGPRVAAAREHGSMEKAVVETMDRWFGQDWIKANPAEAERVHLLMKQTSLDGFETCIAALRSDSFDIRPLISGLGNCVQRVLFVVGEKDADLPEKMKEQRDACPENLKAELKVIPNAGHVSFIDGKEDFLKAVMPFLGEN
Assay: HPLC with fluorescence detection of remaining substrate; nonlinear Hill fit with n = […]
Type: biochemical
Details: 50 mM Tris-HCl pH 8.0, 45 °C, 3 min; substrate range printed as 2 to 220 mM

In the case of `C[C@H]1CCCC(=O)CCC/C=C/c2cc(O)cc(O)c2C(=O)O1` [zearalenone], the Km is reported as 38.6 ± 5.87 µM.
